Where two headings read alike, the source gives them in different places.
Columns and labels:
[1] = 4 plates test (percentage of desinibition observed in the mouse); format: in vivo; conditions: for change in vivo at 1 mg/kg / change in vivo at 3 mg/kg / change in vivo at 10 mg/kg / change in vivo at 30 mg/kg: po, 1 h; for change in vivo at 1 mg/kg: read-out: percentage of desinibition (ACTIVITY, 1 mg/kg p.o.); for change in vivo at 3 mg/kg: read-out: percentage of desinibition (ACTIVITY, 3 mg/kg p.o.); for change in vivo at 10 mg/kg: read-out: percentage of desinibition (ACTIVITY, 10 mg/kg p.o.); for change in vivo at 30 mg/kg: 30 mg/kg p.o.
Experimental: This activity has been tested by the 4 plates test (Aron C. These de Medecine--Paris 1970; Boissier JR--Simon P. and Aron C., A new method for rapid screening of minor tranquillizers in mice, Europ. J. Pharmacol. 1968, 4, 145-151). The substances are administered in several doses (0.3, 1.0, 3.0, 10 and 30 mg/kg) per os, 60 minutes before the test.
The results, which give the percentage of desinibition observed in the mouse, are shown as Examples III-XVIII. At the same doses, the greater the percentage the higher the activity of the piperazine. The results for two known anxiolytic agents are set forth in Examples XIX and XX.

LD 50 toxicity, oral = conditions: in vivo, p.o., tested as hydrochlorides
[2] = mouse, 1 mg/kg p.o., 60 minutes before the test
[3] = mouse, 3 mg/kg p.o., 60 minutes before the test
[4] = mouse, 10 mg/kg p.o., 60 minutes before the test
[5] = mouse, 60 minutes before the test

OCCN1CCN(c2cccc(Cl)c2)CC1 [Example 6]
change in vivo at 1 mg/kg [1, 2]: 23% | change in vivo at 3 mg/kg [1, 3]: 50% | change in vivo at 10 mg/kg [1, 4]: 54% | LD50 (LD 50 toxicity, oral): 750 mg/kg

OCCN1CCN(c2ccccc2)CC1 [Example 7]
change in vivo at 1 mg/kg [1, 2]: 39% | change in vivo at 3 mg/kg [1, 3]: 2% | LD50 (LD 50 toxicity, oral): 525 mg/kg

OCCN1CCN(c2cccc(OC(F)(F)F)c2)CC1 [Example 5]
change in vivo at 1 mg/kg [1, 2]: 8% | change in vivo at 3 mg/kg [1, 3]: 9% | change in vivo at 10 mg/kg [1, 4]: 14% | change in vivo at 30 mg/kg [1, 5]: 88% | LD50 (LD 50 toxicity, oral): 575 mg/kg

CC(=O)OCCN1CCN(c2cccc(C(F)(F)F)c2)CC1 [Example 9]
change in vivo at 1 mg/kg [1, 2]: 24% | change in vivo at 3 mg/kg [1, 3]: 49% | change in vivo at 10 mg/kg [1, 4]: 220% | change in vivo at 30 mg/kg [1, 5]: 156% | LD50 (LD 50 toxicity, oral): 925 mg/kg

CNC1=Nc2ccc(Cl)cc2C(c2ccccc2)=[N+]([O-])C1 [chlordiazepozide, reference compound]
change in vivo at 1 mg/kg [1, 2]: 43% | change in vivo at 3 mg/kg [1, 3]: 86% | change in vivo at 10 mg/kg [1, 4]: 24%

Nc1ccccc1C(=O)OCCN1CCN(c2cccc(C(F)(F)F)c2)CC1 [Example 11]
change in vivo at 1 mg/kg [1, 2]: 35% | change in vivo at 3 mg/kg [1, 3]: 63% | change in vivo at 10 mg/kg [1, 4]: 182% | change in vivo at 30 mg/kg [1, 5]: 336% | LD50 (LD 50 toxicity, oral): 3000 mg/kg

O=C(Nc1ccccc1)OCCN1CCN(c2cccc(SC(F)(F)F)c2)CC1 [Example 18]
percentage of desinibition (ACTIVITY, 0.3 mg/kg p.o.) [1, 5]: +15% | change in vivo at 1 mg/kg [1, 2]: 23% | change in vivo at 3 mg/kg [1, 3]: 63% | change in vivo at 10 mg/kg [1, 4]: 304% | change in vivo at 30 mg/kg [1, 5]: 532%

CCCCNC(=O)OCCN1CCN(c2cccc(SC(F)(F)F)c2)CC1 [Example 15]
change in vivo at 1 mg/kg [1, 2]: 3% | change in vivo at 3 mg/kg [1, 3]: 109% | change in vivo at 10 mg/kg [1, 4]: 64%

CNC(=O)OCCN1CCN(c2cccc(SC(F)(F)F)c2)CC1 [Example 13]
change in vivo at 3 mg/kg ([1]; Mus musculus): 49% | change in vivo at 10 mg/kg ([1]; Mus musculus): 152%

CC(C)(C)C(=O)OCCN1CCN(c2cccc(SC(F)(F)F)c2)CC1 [Example 21]
change in vivo at 1 mg/kg [1, 2]: 73% | change in vivo at 3 mg/kg [1, 3]: 122% | change in vivo at 10 mg/kg [1, 4]: 196%

OCCN1CCN(c2cccc(SC(F)(F)F)c2)CC1 [Example 3, [4-(3'-trifluoromethylthiophenyl)-piperazino]-ethanol]
percentage of desinibition (ACTIVITY, 0.3 mg/kg p.o.) [1, 5]: +118% | change in vivo at 1 mg/kg [1, 2]: 190% | change in vivo at 3 mg/kg [1, 3]: 230% | change in vivo at 10 mg/kg [1, 4]: 335% | change in vivo at 30 mg/kg [1, 5]: 248% | LD50 (LD 50 toxicity, oral): 500 mg/kg

COc1ccc(Cl)cc1C(=O)OCCN1CCN(c2cccc(C(F)(F)F)c2)CC1 [Example 12]
change in vivo at 10 mg/kg [1, 4]: 65% | LD50 (LD 50 toxicity, oral): 1800 mg/kg

OCCN1CCN(c2cccc(C(F)(F)F)c2)CC1 [Example 4]
change in vivo at 10 mg/kg [1, 4]: 174% | change in vivo at 30 mg/kg [1, 5]: 226% | LD50 (LD 50 toxicity, oral): 740 mg/kg

CC(=O)OCCN1CCN(c2cccc(SC(F)(F)F)c2)CC1 [Example 8, (4-m-trifluoromethylthiophenyl-piperazino)-ethyl acetate]
percentage of desinibition (ACTIVITY, 0.3 mg/kg p.o.) [1, 5]: +27% | change in vivo at 1 mg/kg [1, 2]: 88% | change in vivo at 3 mg/kg [1, 3]: 191% | change in vivo at 10 mg/kg [1, 4]: 312% | change in vivo at 30 mg/kg [1, 5]: 154% | LD50 (LD 50 toxicity, oral): 510 mg/kg

CCCC(C)(COC(N)=O)COC(N)=O [meprobamate, reference compound]
change in vivo at 3 mg/kg [1, 3]: 53% | change in vivo at 10 mg/kg [1, 4]: 38% | change in vivo at 30 mg/kg [1, 5]: 142%

O=C(Nc1ccccc1)OCCN1CCN(c2cccc(C(F)(F)F)c2)CC1 [Example 17]
change in vivo at 10 mg/kg [1, 4]: 9% | change in vivo at 30 mg/kg [1, 5]: 30%

CN(C)C(=O)OCCN1CCN(c2cccc(SC(F)(F)F)c2)CC1 [Example 14]
change in vivo at 1 mg/kg ([1]; Mus musculus): 2% | change in vivo at 10 mg/kg ([1]; Mus musculus): 3%
